As a reminder, the IC50 is the point on the concentration scale where inhibition reaches its midpoint.

Each structure is given as a SMILES string.

T1 sequence (P50750 whole entry): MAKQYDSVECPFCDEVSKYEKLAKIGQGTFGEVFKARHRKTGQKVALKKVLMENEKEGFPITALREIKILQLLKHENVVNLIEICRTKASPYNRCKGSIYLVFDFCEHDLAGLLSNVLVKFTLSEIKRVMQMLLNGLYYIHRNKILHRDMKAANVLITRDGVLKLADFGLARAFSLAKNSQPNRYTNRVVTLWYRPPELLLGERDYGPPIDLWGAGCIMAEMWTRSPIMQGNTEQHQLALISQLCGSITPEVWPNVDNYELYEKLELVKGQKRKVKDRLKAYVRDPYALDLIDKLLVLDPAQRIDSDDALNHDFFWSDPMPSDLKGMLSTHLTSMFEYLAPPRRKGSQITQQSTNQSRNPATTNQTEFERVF
T1 sequence (O60563 whole entry partner): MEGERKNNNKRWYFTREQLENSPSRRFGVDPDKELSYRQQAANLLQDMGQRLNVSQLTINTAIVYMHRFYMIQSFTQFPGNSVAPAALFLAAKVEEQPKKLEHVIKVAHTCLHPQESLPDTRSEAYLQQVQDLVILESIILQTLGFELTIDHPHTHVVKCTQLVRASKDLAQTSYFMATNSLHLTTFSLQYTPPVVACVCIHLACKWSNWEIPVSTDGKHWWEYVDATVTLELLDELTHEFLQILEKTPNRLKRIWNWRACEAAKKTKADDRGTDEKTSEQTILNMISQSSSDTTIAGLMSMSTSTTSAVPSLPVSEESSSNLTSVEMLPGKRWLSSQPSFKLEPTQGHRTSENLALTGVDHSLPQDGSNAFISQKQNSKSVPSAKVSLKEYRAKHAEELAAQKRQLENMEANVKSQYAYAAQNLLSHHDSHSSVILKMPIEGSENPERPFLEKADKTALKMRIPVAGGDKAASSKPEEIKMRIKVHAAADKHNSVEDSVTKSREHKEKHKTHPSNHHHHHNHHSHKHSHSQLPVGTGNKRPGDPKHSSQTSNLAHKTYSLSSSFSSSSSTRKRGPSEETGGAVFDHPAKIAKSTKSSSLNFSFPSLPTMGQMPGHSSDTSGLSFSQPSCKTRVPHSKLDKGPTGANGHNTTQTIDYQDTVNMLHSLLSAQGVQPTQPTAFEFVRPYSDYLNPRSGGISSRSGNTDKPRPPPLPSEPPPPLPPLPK

This test has as its target T1, CDK9/CycTI (Homo sapiens, UniProt P50750).
T1 construct: purchased Carna biosciences 04-110
Put plainly: In vitro kinase assay (ADP-Glo Kinase Assay Kit), CDK9/CycTI. The format is biochemical. As to conditions: 30 ng CDK9/CycTI, 30 μM CDKtide, 10 μM ATP, 2 hours at room temperature; 8 to 10-point dose response (Tier2); read-out: IC50 Score. The protocol: In vitro kinase assay was performed in white, 384-low volume plates in 5 μl reaction volume consisting of 30 ng CDK9/CycTI (Carna biosciences #04-110), 30 μM CDKtide (Signalchem #C06-58) and 10 μM ATP made in reaction buffer (40 mM Tris, pH 7.5; 20 mM MgCl2; 0.1 mg/ml BSA; 50 μM DTT) at 1 μM & 10 μM compound concentration for Tier1 assay and 8 to 10-point dose response curve for Tier2 assay. After 2 hours of incubation at room temperature, the amounts of […] in the kinase reaction were quantified using ADP-Glo™ Kinase Assay Kit (Promega #V9102). Briefly, 5 μl of ADP-Glo™ reagent was added to stop the kinase reaction and plate was incubated for 40 minutes at room temperature. Subsequently, 10 μl of Kinase Detection Reagent was added and luminescence was recorded after 30 minutes of incubation at room temperature.
The inhibition of kinase activity was determined relative to positive control (2% DMSO) and IC50 was calculated using GraphPad prism software (four parameter-variable slope equation).
In general terms: ADP-Glo first removes unused ATP, then detects ADP through luciferase.
Take `CN[C@@H]1CC[C@H](C(=O)Nc2nc3ccc4cc(F)ccc4c3s2)C1` [Compound 87, (1S,3R)—N-(7-fluoronaphtho[2,1-d]thiazol-2-yl)-3-(methylamino)cyclopentane-1-carboxamide]: the IC50 lay in the range of 1 to 100 nM. Under `CC(C)(C)OC(=O)N1CC[C@@H](C(=O)Nc2nc3ccc4cc(F)ccc4c3s2)C1` [Compound 89] stands 1000 to 20000 nM. Consider `O=C(Nc1nc2ccc3cc(F)ccc3c2s1)[C@H]1CCN1` [Compound 90, (R)—N-(7-fluoronaphtho[2,1-d]thiazol-2-yl)azetidine-2-carboxamide], for which the IC50 was 500 to 1000 nM.

For the origin of these results see US20220281863A1, “COMPOUNDS, COMPOSITIONS AND METHODS OF TREATING DISORDERS” (Reverie Labs, Inc., priority 2019, published 2022).
